test system: THP-1 cells expressing G12D (NRAS G12D); assay: Inhibition of NRAS G12D-mediated phosphorylation of ERK (AlphaLISA p-ERK1/2) in THP-1 cells; type: cell-based; conditions: Homo sapiens, THP-1, 2 h, 2 hours incubation, HBSS with 0% or 10% FBS, p-ERK1/2 (Thr202/Tyr204) AlphaLISA, read-out: pERK THP-1 IC50
Protocol: Inhibition of NRAS G12D-Mediated Phosphorylation of ERK by Exemplary Compounds of Formulas I, II, and III.
This Example illustrates that exemplary compounds and salts thereof described herein inhibit the phosphorylation of ERK downstream of NRAS G12D.
THP-1 cells (ATCC TIB-202) expressing G12D were maintained in RPMI-1640 medium supplemented with 10% fetal bovine serum (FBS), 0.05 mM 2-mercaptoethanol, and penicillin/streptomycin. Cells (20,000/well) were seeded onto a 384 well plate in 20 μL of HBSS supplemented with 0% or 10% FBS. Cells were incubated in the absence or presence of various concentrations of test compound (final 1% DMSO) for 2 hours. p-ERK expression was assessed using the AlphaLISA SureFire Ultra p-ERK1/2 (Thr202/Tyr204) (PerkinElmer®, ALSU-PERK-A10K) following manufacturer recommendation. Plates were read on a PerkinElmer® Envision Multimode plate reader. Dose-response curves were analyzed using IC50 regression curve fitting (GeneData Screener). Curves were plotted as a percent control and normalized by high controls without inhibitor (100%), and low controls (0%) containing 1 μM of trametinib, a potent MEK inhibitor.

Compared with `C#Cc1c(F)ccc2cc(O)cc(-c3nc(C(=C)C)c4c([C@H]5[C@@H]6CNC[C@@H]65)nn(C5CC5)c4c3F)c12` [Example 53, 4-(3-((1R,5S,6r)-3-azabicyclo[3.1.0]hexan-6-yl)-1-cyclopropyl-7-fluoro-4-(prop-1-en-2-yl)-1H-pyrazolo[4,3-c]pyridin-6-yl)-5-ethynyl-6-fluoronaphthalen-2-ol], `C#Cc1c(F)ccc2cc(O)cc(-c3nc(C(C)=O)c4c([C@H]5[C@@H]6CNC[C@@H]65)nn(C5CC5)c4c3F)c12` [Example 84, 1-(3-((1R,5S,6r)-3-azabicyclo[3.1.0]hexan-6-yl)-1-cyclopropyl-6-(8-ethynyl-7-fluoro-3-hydroxynaphthalen-1-yl)-7-fluoro-1H-pyrazolo[4,3-c]pyridin-4-yl)ethan-1-one] is 79-fold higher in IC50: 5.81 nM for the first, 458 nM for the second. The first is the more potent here.

Going from `C#Cc1c(F)ccc2cc(O)cc(-c3nc(C4CCC4)c4c([C@H]5[C@@H]6CNC[C@@H]65)nn(C5CC5)c4c3F)c12` [Example 54, 4-[3-(3-azabicyclo[3.1.0]hexan-6-yl)-4-cyclobutyl-1-cyclopropyl-7-fluoro-pyrazolo[4,3-c]pyridin-6-yl]-5-ethynyl-6-fluoro-naphthalen-2-ol] to `C#Cc1c(F)ccc2cc(O)cc(-c3nc(N4CCC4)c4c([C@H]5[C@@H]6CNC[C@@H]65)nn(C5CC5)c4c3F)c12` [Example 79, 4-(4-(azetidin-1-yl)-3-((1R,5S,6r)-3-azabicyclo[3.1.0]hexan-6-yl)-1-cyclopropyl-7-fluoro-1H-pyrazolo[4,3-c]pyridin-6-yl)-5-ethynyl-6-fluoronaphthalen-2-ol], the IC50 rises from 16.4 nM to 603 nM (37-fold).

Compared with `C#Cc1c(F)ccc2cc(O)cc(-c3nc(C(F)(F)F)c4c([C@H]5[C@@H]6CNC[C@@H]65)nn(C5CC5)c4c3F)c12` [Example 55, 4-[3-(3-azabicyclo[3.1.0]hexan-6-yl)-1-cyclopropyl-7-fluoro-4-(trifluoromethyl)pyrazolo[4,3-c]pyridin-6-yl]-5-ethynyl-6-fluoro-naphthalen-2-ol], `C#Cc1c(F)ccc2cc(O)cc(-c3nc(C(C)(C)O)c4c([C@H]5[C@@H]6CNC[C@@H]65)nn(C5CC5)c4c3F)c12` [Example 56, 4-[3-(3-azabicyclo[3.1.0]hexan-6-yl)-1-cyclopropyl-7-fluoro-4-(1-hydroxy-1-methyl-ethyl)pyrazolo[4,3-c]pyridin-6-yl]-5-ethynyl-6-fluoro-naphthalen-2-ol] is 3.3-fold lower in IC50: 499 nM for the first, 152 nM for the second.

Compared with `C#Cc1c(F)ccc2cc(O)cc(-c3nc(OC4COC4)c4c([C@H]5[C@@H]6CNC[C@@H]65)nn(C5CC5)c4c3F)c12` [Example 71, 4-(3-((1R,5S,6r)-3-azabicyclo[3.1.0]hexan-6-yl)-1-cyclopropyl-7-fluoro-4-(oxetan-3-yloxy)-1H-pyrazolo[4,3-c]pyridin-6-yl)-5-ethynyl-6-fluoronaphthalen-2-ol], `C#Cc1c(F)ccc2cc(O)cc(-c3nc(N(C)C)c4c([C@H]5[C@@H]6CNC[C@@H]65)nn(C5CC5)c4c3F)c12` [Example 78, 4-(3-((1R,5S,6r)-3-azabicyclo[3.1.0]hexan-6-yl)-1-cyclopropyl-4-(dimethylamino)-7-fluoro-1H-pyrazolo[4,3-c]pyridin-6-yl)-5-ethynyl-6-fluoronaphthalen-2-ol] is lower in IC50: over 10000 nM for the first, 89.2 nM for the second. The second is the more potent here.

Compared with `C#Cc1c(F)ccc2cc(O)cc(-c3nc(N(CC)CC)c4c([C@H]5[C@@H]6CNC[C@@H]65)nn(C5CC5)c4c3F)c12` [Example 80, 4-(3-((1R,5S,6r)-3-azabicyclo[3.1.0]hexan-6-yl)-1-cyclopropyl-4-(diethylamino)-7-fluoro-1H-pyrazolo[4,3-c]pyridin-6-yl)-5-ethynyl-6-fluoronaphthalen-2-ol], `C#Cc1c(F)ccc2cc(O)cc(-c3nc(N(C)CC)c4c([C@H]5[C@@H]6CNC[C@@H]65)nn(C5CC5)c4c3F)c12` [Example 81, 4-(3-((1R,5S,6r)-3-azabicyclo[3.1.0]hexan-6-yl)-1-cyclopropyl-4-(ethyl(methyl)amino)-7-fluoro-1H-pyrazolo[4,3-c]pyridin-6-yl)-5-ethynyl-6-fluoronaphthalen-2-ol] is 1.7-fold lower in IC50: 126 nM for the first, 74.6 nM for the second. The second is the more potent here.

Compared with `C#Cc1c(F)ccc2cc(O)cc(-c3nc(C(C)O)c4c([C@H]5[C@@H]6CNC[C@@H]65)nn(C5CC5)c4c3F)c12` (stereo partly drawn) [Example 87, 4-(3-((1R,5S,6r)-3-azabicyclo[3.1.0]hexan-6-yl)-1-cyclopropyl-7-fluoro-4-(1-hydroxyethyl)-1H-pyrazolo[4,3-c]pyridin-6-yl)-5-ethynyl-6-fluoronaphthalen-2-ol], `C#Cc1c(F)ccc2cc(O)cc(-c3ncc4c(C5[C@H]6CNC[C@@H]56)nc(C)n4c3F)c12` (stereo partly shown) [Example 98, 4-[1-(3-azabicyclo[3.1.0]hexan-6-yl)-5-fluoro-3-methyl-imidazo[1,5-a]pyrazin-6-yl]-5-ethynyl-6-fluoro-naphthalen-2-ol] is 83-fold higher in IC50: 112 nM for the first, 9270 nM for the second.

Compared with `C#Cc1c(F)ccc2cc(O)cc(-c3nc(C(=C)C)c4c(N5C[C@@H]6CC[C@H]5CN6)nn(C5CC5)c4c3F)c12` [Example 89, 4-(3-((1S,4S)-2,5-diazabicyclo[2.2.2]octan-2-yl)-1-cyclopropyl-7-fluoro-4-(prop-1-en-2-yl)-1H-pyrazolo[4,3-c]pyridin-6-yl)-5-ethynyl-6-fluoronaphthalen-2-ol], `C#Cc1c(F)ccc2cc(O)cc(-c3ncc4c(N5C[C@@H]6CC[C@H]5CN6)nn(C5CC5)c4n3)c12` [Example 101, 4-(3-((1S,4S)-2,5-diazabicyclo[2.2.2]octan-2-yl)-1-cyclopropyl-1H-pyrazolo[3,4-d]pyrimidin-6-yl)-5-ethynyl-6-fluoronaphthalen-2-ol] is higher in IC50: 3730 nM for the first, over 10000 nM for the second. The first is the more potent here.

Compared with `C#Cc1c(F)ccc2cc(O)cc(-c3ncc4c(NCCN)nn(C)c4c3F)c12` [Example 93, 4-(3-((2-aminoethyl)amino)-7-fluoro-1-methyl-1H-pyrazolo[4,3-c]pyridin-6-yl)-5-ethynyl-6-fluoronaphthalen-2-ol], `C#Cc1c(F)ccc2cc(O)cc(-c3ncc4c(N5C[C@@H]6CC[C@H]5CN6)c(C)n(C)c4c3F)c12` [Example 107, 4-(3-((1S,4S)-2,5-diazabicyclo[2.2.2]octan-2-yl)-7-fluoro-1,2-dimethyl-1H-pyrrolo[3,2-c]pyridin-6-yl)-5-ethynyl-6-fluoronaphthalen-2-ol] is higher in IC50: 9260 nM for the first, over 10000 nM for the second. The first is the more potent here.

`C#Cc1c(F)ccc2cc(O)cc(-c3ncc4c(C5[C@H]6CNC[C@@H]56)nn5c4c3OCC5)c12` (stereo partly drawn) [Example 94, 4-[3-[(1S,5R)-3-azabicyclo[3.1.0]hexan-6-yl]-9-oxa-1,2,6-triazatricyclo[6.3.1.04,12]dodeca-2,4,6,8(12)-tetraen-7-yl]-5-ethynyl-6-fluoro-naphthalen-2-ol] and `C#Cc1c(F)ccc2cc(O)cc(-c3ncc4c([C@H]5[C@@H]6CNC(COC)[C@@H]65)nn(C5CC5)c4c3F)c12` (stereo partly drawn) [Example 99, 4-(1-cyclopropyl-7-fluoro-3-((1S,5R,6S)-2-(methoxymethyl)-3-azabicyclo[3.1.0]hexan-6-yl)-1H-pyrazolo[4,3-c]pyridin-6-yl)-5-ethynyl-6-fluoronaphthalen-2-ol] cannot be ordered by IC50: over 10000 nM for the first, over 10000 nM for the second.

`C#Cc1c(F)ccc2cc(O)cc(-c3nc4c5c(nn(C)c5c3F)N3C[C@H]5CC[C@H](N5)[C@H]3CO4)c12` [Example 95, 5-ethynyl-6-fluoro-4-[(4R,7S,8S)-14-fluoro-16-methyl-10-oxa-2,12,16,17,19-pentazapentacyclo[9.6.1.14,7.02,8.015,18]nonadeca-1(17),11(18),12,14-tetraen-13-yl]naphthalen-2-ol] showed an IC50 of over 10000 nM.

Reference: patent US20260022118A1, “HETEROCYCLIC COMPOUNDS AS NRAS INHIBITORS” (Board of Regents, The University of Texas System, priority 2023, published 2026)
